Patent US8343549B2, “Therapeutic uses of Dunaliella powder” (Nikken Sohonsha Corporation, priority 2003, dated 2013)

Experiments:
[1] = test system: patients; conditions: patients treated with gemfibrozil; cited from earlier work
[2] = test system: male LDL R-\-mice; experiment: Western diet-induced diabetes in LDL R-/- mice; format: in vivo; conditions: LDL R-/- mice on Western diet, 4 weeks treatment
Excerpt: To test the effect of Dunaliella on Diabetes, male LDL R-\-mice (n=30) were fed a Western diet (42% calories from fat) in order to induce Diabetes. After 4 weeks of Western diet feeding, the mice were divided into 6 groups (n=5 in each group) and were fed Western diet fortified by rosiglitazone (0.02% of the diet, weight/weight), crude Dunaliella powder (8% of the diet, weight/weight) or 9-cis retinoic acid (24 nmol/mouse×day). The treatments lasted 4 weeks.
The 8% Dunaliella powder provided ˜1.5 nmol 9-cis retinoic acid/mouse×day. This calculated amount is based on conversion of β-carotene to vitamin A (27 molecules provide 1 molecule of vitamin A and on the ratio of retinoic acid to vitamin A which is about 1 molecule of retinoic acid to 300 molecules of retinol, retinal and retinoic acid).
The following groups were included:
1. Control, Western diet alone. (Control)
2. 9-cis retinoic acid (RA)
4. Dunaliella powder 8% (Dun)

Question: Which “reduction of the rate of coronary events” value [1] does the source give for Cc1ccc(C)c(OCCCC(C)(C)C(=O)O)c1 [gemfibrozil] here?
Answer: 22%

Question: Which plasma glucose levels [2] does the source give for CC1=C(/C=C/C(C)=C\C=C\C(C)=C\C(=O)O)C(C)(C)CCC1 [9-cis retinoic acid] here?
Answer: did not affect

Question: And the plasma insulin levels [2]?
Answer: did not affect
